{
  "source": "BindingDB's records for doi:10.7270/Q2ZG6QNM",
  "about": "(University of Pittsburgh, 2008)",
  "data": [
    {"molecular_target": "T1, Serine/threonine-protein kinase D1 (Homo sapiens, UniProt Q15139)", "T1 sequence (Q15139 whole entry)": "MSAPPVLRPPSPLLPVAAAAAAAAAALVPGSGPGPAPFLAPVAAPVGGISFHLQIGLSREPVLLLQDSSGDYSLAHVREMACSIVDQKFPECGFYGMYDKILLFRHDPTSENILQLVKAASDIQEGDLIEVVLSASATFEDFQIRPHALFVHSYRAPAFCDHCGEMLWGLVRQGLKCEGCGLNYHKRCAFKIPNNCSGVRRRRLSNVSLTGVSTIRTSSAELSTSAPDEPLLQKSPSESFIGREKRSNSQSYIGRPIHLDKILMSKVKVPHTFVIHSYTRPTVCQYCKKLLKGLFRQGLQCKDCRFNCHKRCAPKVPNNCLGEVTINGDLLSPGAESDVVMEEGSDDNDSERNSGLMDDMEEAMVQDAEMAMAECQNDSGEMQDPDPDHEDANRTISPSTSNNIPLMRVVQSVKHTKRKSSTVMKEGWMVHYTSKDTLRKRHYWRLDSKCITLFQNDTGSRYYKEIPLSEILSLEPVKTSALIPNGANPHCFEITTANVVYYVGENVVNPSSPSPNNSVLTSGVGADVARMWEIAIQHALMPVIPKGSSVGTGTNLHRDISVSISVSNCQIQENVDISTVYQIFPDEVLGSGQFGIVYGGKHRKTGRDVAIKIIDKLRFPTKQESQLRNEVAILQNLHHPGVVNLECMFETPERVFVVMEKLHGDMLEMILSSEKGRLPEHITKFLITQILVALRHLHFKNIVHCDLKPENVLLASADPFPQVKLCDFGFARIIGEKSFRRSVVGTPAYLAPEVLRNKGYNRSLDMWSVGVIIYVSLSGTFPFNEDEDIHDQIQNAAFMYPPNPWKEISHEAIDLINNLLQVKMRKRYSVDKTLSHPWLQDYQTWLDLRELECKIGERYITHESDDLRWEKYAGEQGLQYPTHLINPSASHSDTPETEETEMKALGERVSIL", "assay": "fluorescence polarization artefacts, biochemical, 57K campaign, artefact control, dose response (AID 1342)", "units": {"IC50": "µM"}, "values": [
      {"smiles": "Cn1cccc1C(=O)NC(=O)COC(=O)c1cc(S(=O)(=O)N2CCCCC2)ccc1Cl", "note": "[[2-[(1-methylpyrrol-2-yl)carbonylamino]-2-oxidanylidene-ethyl] 2-chloranyl-5-piperidin-1-ylsulfonyl-benzoate]", "IC50": "> 50"},
      {"smiles": "COc1ccc(Cn2c(=O)[nH]c3cc(C(=O)NC4CCCC4)ccc3c2=O)cc1", "note": "[MLS000730065]", "IC50": "> 50"},
      {"smiles": "O=C(CSc1ccc2nnc(-c3cccnc3)n2n1)c1ccccc1", "note": "[1-phenyl-2-[[3-(3-pyridinyl)-[1,2,4]triazolo[4,3-b]pyridazin-6-yl]thio]ethanone]", "IC50": "> 50"},
      {"smiles": "COc1ccc(CNC(=O)C2Cc3ccccc3CN2C(=O)c2ccco2)cc1", "note": "(stereo not drawn) [SMR000343177]", "IC50": "> 50"},
      {"smiles": "COC(=O)c1c(NC(=O)C2C3CCC(C3)C2C(=O)O)sc2c1CCCCC2", "note": "(stereo not drawn) [SMR000298221]", "IC50": "> 50"},
      {"smiles": "Cc1c(C#N)c(N)nc(Cl)c1C#N", "note": "[2-amino-6-chloro-4-methyl-3,5-pyridinedicarbonitrile]", "IC50": "> 50"},
      {"smiles": "CCOC(=O)c1sc(=NC(=O)CCS(=O)(=O)c2ccccc2)n(C)c1C", "note": "[2-[3-(benzenesulfonyl)-1-oxopropyl]imino-3,4-dimethyl-5-thiazolecarboxylic acid ethyl ester]", "IC50": "> 50"},
      {"smiles": "O=C(NNC1=Nc2cccc3cccc1c23)c1ccc(Br)cc1", "note": "[SMR000260645]", "IC50": "> 50"},
      {"smiles": "CCCc1cc(=O)[nH]c(SCCCCN2C(=O)c3ccccc3C2=O)n1", "note": "[2-[4-[(4-oxidanylidene-6-propyl-1H-pyrimidin-2-yl)sulfanyl]butyl]isoindole-1,3-dione]", "IC50": "> 50"},
      {"smiles": "CC(N=Nc1ncc(Cl)cc1Cl)c1ccccn1", "note": "(stereo not drawn) [3,5-dichloro-N-(1-pyridin-2-ylethylideneamino)pyridin-2-amine]", "IC50": 16.7},
      {"smiles": "O=C(CSc1ccncc1)Nc1ccc2ccccc2c1", "note": "[N-naphthalen-2-yl-2-pyridin-4-ylsulfanylacetamide]", "IC50": "> 50"},
      {"smiles": "CC1Cc2ccccc2N1c1ncnc(N)c1[N+](=O)[O-]", "note": "(stereo not drawn) [6-(2-methyl-2,3-dihydro-1H-indol-1-yl)-5-nitro-4-pyrimidinamine]", "IC50": "> 50"},
      {"smiles": "O=C(Nc1ccccc1C(=O)N1CCCC1)C1COc2ccccc2O1", "note": "(stereo not drawn) [SMR000287780]", "IC50": "> 50"},
      {"smiles": "Cc1cc(NC(=O)CCC(=O)N(Cc2ccco2)C(C(=O)NCC2CCCO2)c2ccncc2)no1", "note": "(stereo not drawn) [N'-(furan-2-ylmethyl)-N-(5-methyl-1,2-oxazol-3-yl)-N'-[2-oxidanylidene-2-(oxolan-2-ylmethylamino)-1-pyridin-4-yl-ethyl]butanediamide]", "IC50": "> 50"},
      {"smiles": "O=C(O)c1cc(C(=O)C2CCCCC2)c[nH]1", "note": "[4-(cyclohexylcarbonyl)-1H-pyrrole-2-carboxylic acid]", "IC50": "> 50"},
      {"smiles": "CSc1ccccc1C(=O)NCc1ccc(F)cc1", "IC50": "> 50"},
      {"smiles": "O=C1CSCN1c1cc(Cl)ccc1Cl", "note": "[3-(2,5-dichlorophenyl)-1,3-thiazolan-4-one]", "IC50": "> 50"},
      {"smiles": "O=[N+]([O-])c1ccc(Nc2c3ccccc3nc3ccccc23)cc1", "note": "[MLS000723809]", "IC50": "> 50"}
    ]}
  ]
}
